# Measured values published in publication PMC6409085, “Three odorant-binding proteins are involved in the behavioral response of Sogatella furcifera to rice plant volatiles” (PeerJ, 2019).
# Where “and” joins values, the source holds several entries; their conditions need not be identical. Identical values can stand only once.
# What was measured:
# SfurOBP1 = SfurOBP1 (Sogatella furcifera, UniProt V5T8N5); assay: biochemical; assay type: binding; settings: for Fluorescence competitive binding assay, fluorescence intensity: OBP1, three replicate columns
# Sequence of SfurOBP1 (V5T8N5 entry or part of it): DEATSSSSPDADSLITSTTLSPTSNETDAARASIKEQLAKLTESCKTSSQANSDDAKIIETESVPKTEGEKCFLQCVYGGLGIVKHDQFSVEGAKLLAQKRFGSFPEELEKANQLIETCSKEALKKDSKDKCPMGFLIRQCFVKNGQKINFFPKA
# In short: (§1)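 In 50 mM Tris-HCl pH 7.4, odorants displace 1-NPN (2.0 µM) from 2.0 µM protein. Emission at 390–490 nm under 337 nm excitation is measured 2 min after competitor addition, in triplicate. Ki is obtained from IC50 and the 1-NPN dissociation constant.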
# SfurOBP11 = SfurOBP11 (Sogatella furcifera, UniProt V5T6E3); assay: biochemical; assay type: binding
# Sequence of SfurOBP11 (V5T6E3 entry or part of it): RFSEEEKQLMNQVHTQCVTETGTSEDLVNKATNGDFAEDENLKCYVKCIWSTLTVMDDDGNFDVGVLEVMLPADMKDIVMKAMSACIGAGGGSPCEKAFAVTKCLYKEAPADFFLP
# In short: as §1
# SfurOBP2 = SfurOBP2 (Sogatella furcifera, UniProt V5T759); assay: biochemical; assay type: binding
# Sequence of SfurOBP2 (V5T759 entry or part of it): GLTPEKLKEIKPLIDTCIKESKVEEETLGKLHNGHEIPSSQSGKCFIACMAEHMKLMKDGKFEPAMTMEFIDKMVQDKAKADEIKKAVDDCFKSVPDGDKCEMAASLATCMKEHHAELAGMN
# In short: as §1
# SfurOBP3 = SfurOBP3 (Sogatella furcifera, UniProt V5T818); assay: biochemical; assay type: binding; settings: for Fluorescence competitive binding assay, fluorescence intensity: OBP3, three replicate columns;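 on Fluorescence competitive binding assay, fluorescence intensity: competitor odorant at 2 to 20 µM with protein and 1-NPN both 2.0 µM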
# Sequence of SfurOBP3 (V5T818 entry or part of it): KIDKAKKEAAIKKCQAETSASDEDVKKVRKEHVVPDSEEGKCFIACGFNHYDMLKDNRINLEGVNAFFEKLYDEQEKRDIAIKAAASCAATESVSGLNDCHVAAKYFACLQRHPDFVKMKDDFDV
# In short: as §1
# S. furcifera adults = assay: Y-tube olfactometer behavioral trials; assay type: in vivo, Sogatella furcifera; settings: odorant 50 µL/L vs hexane; adults
# In short: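 Single S. furcifera adults (2 days post-emergence, starved 0.5 h) chose between odorant (100 µL of 50 µL/L on filter paper) and hexane control in a glass Y-tube, charcoal-filtered humidified air 300 mL/min per arm, 25 ± 1 °C, 50% RH. Choice scored if insect passed half an arm and stayed >1 min within 10 min; 45 insects per compound, chi-squared test.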
# 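Wherever Fluorescence competitive binding assay, fluorescence intensity is given: competitor odorant at 2 to 20 µM with protein and 1-NPN both 2.0 µM.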
smiles,measurement,setting,value
C=CC(C)(O)CCC=C(C)C (stereo not drawn) [linalool],IC50,SfurOBP1,> 20 µM
same,"Fluorescence competitive binding assay, fluorescence intensity",SfurOBP1; ligand concentration 2 (μM),6084 and 5184 and 7029
same,"Fluorescence competitive binding assay, fluorescence intensity",SfurOBP1; ligand concentration 4 (μM),5717 and 6456 and 6034
same,"Fluorescence competitive binding assay, fluorescence intensity",SfurOBP1; ligand concentration 6 (μM),5873 and 6101 and 6679
same,"Fluorescence competitive binding assay, fluorescence intensity",SfurOBP1; ligand concentration 8 (μM),5733 and 6957 and 6693
same,"Fluorescence competitive binding assay, fluorescence intensity",SfurOBP1; ligand concentration 10 (μM),5847 and 5923 and 6121
same,"Fluorescence competitive binding assay, fluorescence intensity",SfurOBP1; ligand concentration 12 (μM),6065 and 6137 and 6412
same,"Fluorescence competitive binding assay, fluorescence intensity",SfurOBP1; ligand concentration 14 (μM),7822 and 5806 and 6262
same,"Fluorescence competitive binding assay, fluorescence intensity",SfurOBP1; ligand concentration 16 (μM),5059 and 6382 and 5339
same,"Fluorescence competitive binding assay, fluorescence intensity",SfurOBP1; ligand concentration 18 (μM),6537 and 6532 and 5815
same,"Fluorescence competitive binding assay, fluorescence intensity",SfurOBP1; ligand concentration 20 (μM),6056 and 5740 and 5464
same,IC50,SfurOBP11,> 20 µM
same,"Fluorescence intensity, fluorescence competitive binding assay, OBP11","SfurOBP11; ligand concentration 2, replicate 1",34595
same,"Fluorescence intensity, fluorescence competitive binding assay, OBP11","SfurOBP11; ligand concentration 2, replicate 2",35145
same,"Fluorescence intensity, fluorescence competitive binding assay, OBP11","SfurOBP11; ligand concentration 2, replicate 3",35691
same,"Fluorescence intensity, fluorescence competitive binding assay, OBP11","SfurOBP11; ligand concentration 4, replicate 1",34126
same,"Fluorescence intensity, fluorescence competitive binding assay, OBP11","SfurOBP11; ligand concentration 4, replicate 2",38977
same,"Fluorescence intensity, fluorescence competitive binding assay, OBP11","SfurOBP11; ligand concentration 4, replicate 3",36540
same,"Fluorescence intensity, fluorescence competitive binding assay, OBP11","SfurOBP11; ligand concentration 6, replicate 1",35921
same,"Fluorescence intensity, fluorescence competitive binding assay, OBP11","SfurOBP11; ligand concentration 6, replicate 2",34102
same,"Fluorescence intensity, fluorescence competitive binding assay, OBP11","SfurOBP11; ligand concentration 6, replicate 3",34901
same,"Fluorescence intensity, fluorescence competitive binding assay, OBP11","SfurOBP11; ligand concentration 8, replicate 1",31879
same,"Fluorescence intensity, fluorescence competitive binding assay, OBP11","SfurOBP11; ligand concentration 8, replicate 2",34190
same,"Fluorescence intensity, fluorescence competitive binding assay, OBP11","SfurOBP11; ligand concentration 8, replicate 3",34940
same,"Fluorescence intensity, fluorescence competitive binding assay, OBP11","SfurOBP11; ligand concentration 10, replicate 1",32152
same,"Fluorescence intensity, fluorescence competitive binding assay, OBP11","SfurOBP11; ligand concentration 10, replicate 2",33920
same,"Fluorescence intensity, fluorescence competitive binding assay, OBP11","SfurOBP11; ligand concentration 10, replicate 3",34003
same,"Fluorescence intensity, fluorescence competitive binding assay, OBP11","SfurOBP11; ligand concentration 12, replicate 1",31331
same,"Fluorescence intensity, fluorescence competitive binding assay, OBP11","SfurOBP11; ligand concentration 12, replicate 2",31885
same,"Fluorescence intensity, fluorescence competitive binding assay, OBP11","SfurOBP11; ligand concentration 12, replicate 3",32147
same,"Fluorescence intensity, fluorescence competitive binding assay, OBP11","SfurOBP11; ligand concentration 14, replicate 1",27789
same,"Fluorescence intensity, fluorescence competitive binding assay, OBP11","SfurOBP11; ligand concentration 14, replicate 2",28913
same,"Fluorescence intensity, fluorescence competitive binding assay, OBP11","SfurOBP11; ligand concentration 14, replicate 3",26664
same,"Fluorescence intensity, fluorescence competitive binding assay, OBP11","SfurOBP11; ligand concentration 16, replicate 1",26184
same,"Fluorescence intensity, fluorescence competitive binding assay, OBP11","SfurOBP11; ligand concentration 16, replicate 2",25844
same,"Fluorescence intensity, fluorescence competitive binding assay, OBP11","SfurOBP11; ligand concentration 16, replicate 3",25199
same,"Fluorescence intensity, fluorescence competitive binding assay, OBP11","SfurOBP11; ligand concentration 18, replicate 1",30237
same,"Fluorescence intensity, fluorescence competitive binding assay, OBP11","SfurOBP11; ligand concentration 18, replicate 2",30011
same,"Fluorescence intensity, fluorescence competitive binding assay, OBP11","SfurOBP11; ligand concentration 18, replicate 3",30462
same,"Fluorescence intensity, fluorescence competitive binding assay, OBP11","SfurOBP11; ligand concentration 20, replicate 1",29291
same,"Fluorescence intensity, fluorescence competitive binding assay, OBP11","SfurOBP11; ligand concentration 20, replicate 2",29263
same,"Fluorescence intensity, fluorescence competitive binding assay, OBP11","SfurOBP11; ligand concentration 20, replicate 3",28048
same,IC50,SfurOBP2,> 20 µM
same,"Fluorescence competitive binding assay, OBP2 (raw fluorescence reading)","SfurOBP2; ligand concentration 2 (unit not given), replicate column 1 of 3",22475
same,"Fluorescence competitive binding assay, OBP2 (raw fluorescence reading)","SfurOBP2; ligand concentration 2 (unit not given), replicate column 2 of 3",19579
same,"Fluorescence competitive binding assay, OBP2 (raw fluorescence reading)","SfurOBP2; ligand concentration 2 (unit not given), replicate column 3 of 3",19869
same,"Fluorescence competitive binding assay, OBP2 (raw fluorescence reading)","SfurOBP2; ligand concentration 4 (unit not given), replicate column 1 of 3",18324
same,"Fluorescence competitive binding assay, OBP2 (raw fluorescence reading)","SfurOBP2; ligand concentration 4 (unit not given), replicate column 2 of 3",21526
same,"Fluorescence competitive binding assay, OBP2 (raw fluorescence reading)","SfurOBP2; ligand concentration 4 (unit not given), replicate column 3 of 3",18676
same,"Fluorescence competitive binding assay, OBP2 (raw fluorescence reading)","SfurOBP2; ligand concentration 6 (unit not given), replicate column 1 of 3",20143
same,"Fluorescence competitive binding assay, OBP2 (raw fluorescence reading)","SfurOBP2; ligand concentration 6 (unit not given), replicate column 2 of 3",19481
same,"Fluorescence competitive binding assay, OBP2 (raw fluorescence reading)","SfurOBP2; ligand concentration 6 (unit not given), replicate column 3 of 3",21546
same,"Fluorescence competitive binding assay, OBP2 (raw fluorescence reading)","SfurOBP2; ligand concentration 8 (unit not given), replicate column 1 of 3",18566
same,"Fluorescence competitive binding assay, OBP2 (raw fluorescence reading)","SfurOBP2; ligand concentration 8 (unit not given), replicate column 2 of 3",19629
same,"Fluorescence competitive binding assay, OBP2 (raw fluorescence reading)","SfurOBP2; ligand concentration 8 (unit not given), replicate column 3 of 3",19018
same,"Fluorescence competitive binding assay, OBP2 (raw fluorescence reading)","SfurOBP2; ligand concentration 10 (unit not given), replicate column 1 of 3",17948
same,"Fluorescence competitive binding assay, OBP2 (raw fluorescence reading)","SfurOBP2; ligand concentration 10 (unit not given), replicate column 2 of 3",18880
same,"Fluorescence competitive binding assay, OBP2 (raw fluorescence reading)","SfurOBP2; ligand concentration 10 (unit not given), replicate column 3 of 3",17034
same,"Fluorescence competitive binding assay, OBP2 (raw fluorescence reading)","SfurOBP2; ligand concentration 12 (unit not given), replicate column 1 of 3",17194
same,"Fluorescence competitive binding assay, OBP2 (raw fluorescence reading)","SfurOBP2; ligand concentration 12 (unit not given), replicate column 2 of 3",16713
same,"Fluorescence competitive binding assay, OBP2 (raw fluorescence reading)","SfurOBP2; ligand concentration 12 (unit not given), replicate column 3 of 3",16298
same,"Fluorescence competitive binding assay, OBP2 (raw fluorescence reading)","SfurOBP2; ligand concentration 14 (unit not given), replicate column 1 of 3",15375
same,"Fluorescence competitive binding assay, OBP2 (raw fluorescence reading)","SfurOBP2; ligand concentration 14 (unit not given), replicate column 2 of 3",15983
same,"Fluorescence competitive binding assay, OBP2 (raw fluorescence reading)","SfurOBP2; ligand concentration 14 (unit not given), replicate column 3 of 3",16080
same,"Fluorescence competitive binding assay, OBP2 (raw fluorescence reading)","SfurOBP2; ligand concentration 16 (unit not given), replicate column 1 of 3",16976
same,"Fluorescence competitive binding assay, OBP2 (raw fluorescence reading)","SfurOBP2; ligand concentration 16 (unit not given), replicate column 2 of 3",14612
same,"Fluorescence competitive binding assay, OBP2 (raw fluorescence reading)","SfurOBP2; ligand concentration 16 (unit not given), replicate column 3 of 3",14664
same,"Fluorescence competitive binding assay, OBP2 (raw fluorescence reading)","SfurOBP2; ligand concentration 18 (unit not given), replicate column 1 of 3",15874
same,"Fluorescence competitive binding assay, OBP2 (raw fluorescence reading)","SfurOBP2; ligand concentration 18 (unit not given), replicate column 2 of 3",15679
same,"Fluorescence competitive binding assay, OBP2 (raw fluorescence reading)","SfurOBP2; ligand concentration 18 (unit not given), replicate column 3 of 3",13833
same,"Fluorescence competitive binding assay, OBP2 (raw fluorescence reading)","SfurOBP2; ligand concentration 20 (unit not given), replicate column 1 of 3",14349
same,"Fluorescence competitive binding assay, OBP2 (raw fluorescence reading)","SfurOBP2; ligand concentration 20 (unit not given), replicate column 2 of 3",13969
same,"Fluorescence competitive binding assay, OBP2 (raw fluorescence reading)","SfurOBP2; ligand concentration 20 (unit not given), replicate column 3 of 3",12873
same,IC50,SfurOBP3,> 20 µM
same,"Fluorescence competitive binding assay, fluorescence intensity",SfurOBP3; ligand concentration 2,45666 and 44893 and 46206
same,"Fluorescence competitive binding assay, fluorescence intensity",SfurOBP3; ligand concentration 4,43749 and 45410 and 42660
same,"Fluorescence competitive binding assay, fluorescence intensity",SfurOBP3; ligand concentration 6,44364 and 44740 and 45115
same,"Fluorescence competitive binding assay, fluorescence intensity",SfurOBP3; ligand concentration 8,41369 and 43894 and 46339
same,"Fluorescence competitive binding assay, fluorescence intensity",SfurOBP3; ligand concentration 10,41142 and 43565 and 45619
same,"Fluorescence competitive binding assay, fluorescence intensity",SfurOBP3; ligand concentration 12,38618 and 37689 and 38140
same,"Fluorescence competitive binding assay, fluorescence intensity",SfurOBP3; ligand concentration 14,35045 and 37361 and 38462
same,"Fluorescence competitive binding assay, fluorescence intensity",SfurOBP3; ligand concentration 16,32691 and 35765 and 36425
same,"Fluorescence competitive binding assay, fluorescence intensity",SfurOBP3; ligand concentration 18,35273 and 34668 and 35335
same,"Fluorescence competitive binding assay, fluorescence intensity",SfurOBP3; ligand concentration 20,34176 and 32081 and 34822
same,number of insects choosing hexane arm,S. furcifera adults,14
same,number of insects choosing volatilies arm,S. furcifera adults,14
same,number of insects failed (no choice),S. furcifera adults,12
